These are literature values, as cited in patent US12097195B2, “Pharmaceutical composition containing alkynyl compound and preparation method and application thereof” (ASCENTAGE PHARMA (SUZHOU) CO., LTD., priority 2019, dated 2024).

The structures appear in SMILES notation.

For the compound `Cc1ccc(C(=O)Nc2ccc(CN3CCN(C)CC3)c(C(F)(F)F)c2)cc1C#Cc1cnc2[nH]ncc2c1` [alknyl compound, 3-((1H-pyrazolo[3,4-b]pyridin-5-yl)ethynyl)-4-methyl-N-(4-((4-methylpiperazin-1-yl)methyl)-3-(trifluoromethyl)phenyl)-benzamide], the inhibition rate entry in the series with acute leukemia MOLT and in the series on chronic leukemia K562 was “very good inhibition rate” each time.
